The values that follow come from patent US20060167075A1, “Modulators of FAAH” (priority 2005, published 2006).

In assay [1] the target is T1, FAAH (Rattus norvegicus, UniProt P97612).
T1 construct: FAAH activity was assayed in the respective homogenates (Rat brain or Human brain); from tissue; host or cells: rat brain membrane homogenate (Charles River CD strain)
T1 sequence (P97612 1-579): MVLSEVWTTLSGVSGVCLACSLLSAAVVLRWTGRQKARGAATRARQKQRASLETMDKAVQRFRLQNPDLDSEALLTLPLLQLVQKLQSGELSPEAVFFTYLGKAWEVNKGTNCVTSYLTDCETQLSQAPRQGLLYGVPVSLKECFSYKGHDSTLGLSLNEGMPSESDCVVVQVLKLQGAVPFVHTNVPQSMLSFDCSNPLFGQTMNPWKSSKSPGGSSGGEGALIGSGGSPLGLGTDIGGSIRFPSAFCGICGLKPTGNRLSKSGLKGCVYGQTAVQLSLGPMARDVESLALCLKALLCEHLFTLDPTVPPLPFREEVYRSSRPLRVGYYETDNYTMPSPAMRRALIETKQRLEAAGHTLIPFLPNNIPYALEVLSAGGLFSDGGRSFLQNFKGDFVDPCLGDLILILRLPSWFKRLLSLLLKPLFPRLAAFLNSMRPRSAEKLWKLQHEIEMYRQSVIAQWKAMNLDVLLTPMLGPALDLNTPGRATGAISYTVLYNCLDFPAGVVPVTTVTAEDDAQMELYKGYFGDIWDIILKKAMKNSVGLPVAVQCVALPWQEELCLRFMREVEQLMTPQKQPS
The assay is described as follows: FAAH activity in rat brain membrane (RBM) homogenate, 3H-anandamide hydrolysis. The assay is classed as biochemical. The settings on record: 10 min at 37° C., pH 6.5.
Protocol: (§1) To assess FAAH inhibition, compounds were tested in an assay using rat brain microsomes and an assay using human brain microsomes using the methods described below.
Nine adult rats (Charles River CD strain, female, 200 g) were anaesthetized with isofluorane and rapidly decapitated. Each brain was quickly removed and chilled in tubes (3 brains per tube) on ice. Total wet weight of the 9 brains was ˜18 g. 25 mL of homogenization buffer (20 mM HEPES buffer, pH 7.0, with 1 mM MgCl2) was added to each tube. The brains were homogenized on ice for 1 minute using an Omni GLH homogenizer (Omni International, Marietta, Ga.). The homogenates were transferred to three centrifuge tubes and centrifuged at 36,500 g for 20 minutes at 4° C. The supernatant was discarded and each pellet was re-suspended in 25 ml homogenization buffer. The resuspended material was again centrifuged (36,500g, 20 min at 4° C.). The pellets were combined by resuspension in 10 mL of homogenization buffer and incubated in a 37° C. water bath for 15 min. The tube was then placed on ice for 5 min followed by centrifugation at 36,500 g for 20 minutes at 4° C. The supernatant was discarded and the membrane pellet was then resuspended in 40 mL of resuspension buffer (50 mM Tris-HCl buffer, pH 7.4, containing 1 mM EDTA and 3 mM MgCl2). A Bradford Protein assay was performed to determine protein concentration. […]
(§2) Samples were placed on ice to terminate the reactions. […] Radioactivity (corresponding to FAAH-catalyzed breakdown of ^3H-anandamide) found in aliquots (0.2 ml) of the aqueous phase was determined by liquid scintillation counting with quench correction.
(§3) The method of Wilson et al. was modified by acidifying the reaction mixtures by the addition of 10 μl of sodium phosphate solution [0.5M (pH 2.0)] after reactions were incubated at 37° C. for 10 min and chilled on ice. […] The columns were centrifuged and the eluate was counted as described by Wilson et al.

Assay [2] addresses T2, FAAH (Homo sapiens, UniProt O00519).
T2 construct: FAAH activity was assayed in the respective homogenates (Rat brain or Human brain); tissue Analytical Biological Services (ABS), Inc; host or cells: human brain cortex membrane homogenate, pooled from three donors
T2 sequence (O00519 1-579): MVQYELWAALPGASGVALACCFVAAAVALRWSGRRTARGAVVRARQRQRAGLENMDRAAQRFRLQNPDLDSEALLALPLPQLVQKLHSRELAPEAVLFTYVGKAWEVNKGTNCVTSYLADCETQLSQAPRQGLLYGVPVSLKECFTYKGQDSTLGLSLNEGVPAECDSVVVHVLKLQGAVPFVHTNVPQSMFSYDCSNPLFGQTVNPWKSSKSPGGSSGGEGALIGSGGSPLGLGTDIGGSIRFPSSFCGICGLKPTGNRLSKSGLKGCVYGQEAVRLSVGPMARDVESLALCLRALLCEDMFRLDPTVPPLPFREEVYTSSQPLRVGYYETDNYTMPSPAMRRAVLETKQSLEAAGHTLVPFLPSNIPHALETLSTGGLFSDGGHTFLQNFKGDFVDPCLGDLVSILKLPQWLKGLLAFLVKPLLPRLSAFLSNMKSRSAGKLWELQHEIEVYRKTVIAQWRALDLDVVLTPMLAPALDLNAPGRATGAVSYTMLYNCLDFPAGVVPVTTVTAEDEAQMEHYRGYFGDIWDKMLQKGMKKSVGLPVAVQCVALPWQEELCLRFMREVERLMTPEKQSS
The assay is described as follows: FAAH activity in human brain membrane (HBM) homogenate, 3H-anandamide hydrolysis. The following applies: 10 min at 37° C., pH 6.5. The format is biochemical.
Protocol: as §1
10 g of normal human brain cortex tissue pooled from three donors was purchased from Analytical Biological Services (ABS), Inc. (Wilmington, Del.). The tissue had been collected by ABS, Inc. ˜4 hrs post mortem and was flash frozen and stored at −80° C. The brain tissue was thawed and transferred to a large ceramic mortar on ice. 50 mL of ice-cold homogenization buffer (20 mM HEPES buffer, pH 7.0, with 1 mM MgCl2) was added to the mortar and the tissue was homogenized with a pestle. The homogenate was centrifuged at 36,500 g for 20 minutes at 4° C. The supernatants were discarded and the pellets re-suspended in homogenization buffer and centrifuged as before. The supernatants were again discarded and the pellets were re-suspended in 30 ml homogenization buffer and incubated in a 37° C. water bath for 20 min. The homogenate was then centrifuged as before. The supernatant was discarded and the membrane pellets were re-suspended in 30 ml resuspension buffer (50 mM Tris-HCl buffer, pH 7.4, containing 1 mM EDTA and 3 mM MgCl2). A Bradford Protein assay was performed to determine protein concentration. The protein suspension was aliquotted into screw cap Cryo tubes each containing ˜200 μL of suspension, flash frozen in liquid nitrogen and stored at −80° C. until used for the assay.
as §2, §3

Structures are written as SMILES.

The term IC50 denotes the concentration that inhibits the measured activity by half. Read a high IC50 as weaker potency in that assay. For the compound `Cc1ccc(-c2cc(C(F)(F)F)nn2-c2ccc(S(N)(=O)=O)cc2)cc1` [Celecoxib, 4-[[5-(p-tolyl)-3-(trifluoromethyl)-1H-pyrazol-1-yl]]benzenesulfonamide], the 50% inhibitory concentration (IC50) against FAAH [1] was 167 µM.
With `COc1ccc2c(c1)c(CC(=O)O)c(C)n2C(=O)c1ccc(Cl)cc1` [Indomethacin], 96 µM corresponded to half-maximal inhibition on FAAH [2] (IC50).
Regarding `CS(=O)(=O)c1ccc(C2=C(c3ccccc3)C(=O)OC2)cc1` [Rofecoxib], the IC50 against FAAH [1] amounted to 452 µM; against FAAH [2] it was 198 µM.
Regarding `Cc1onc(-c2ccccc2)c1-c1ccc(S(N)(=O)=O)cc1` [Valdecoxib, 4-(5-methyl-3-phenyl-isoxazol-4-yl)benzenesulfonamide], the IC50 is 280 µM on FAAH [1] and 41 µM at FAAH [2].
